Laboratory results as given in patent US8202887B2, “2-(substituted-amino)-benzothiazole sulfonamide HIV protease inhibitors” (Janssen R&D Ireland, priority 2006, dated 2012).
Like-named read-outs stand apart in the source and are kept apart here.

Legend:
Format in all cases: cell-based
[1] = tested on: wild type laboratory HIV strain (WT IIIB-2-001); experiment: Cellular anti-viral assay in MT4-LTR-EGFP cells, wild type strain; details: for EC50: Human immunodeficiency virus 1, IIIB, 72 h, read-out: pEC50 WT-IIIB-2-001 (converted)
Protocol: The compounds were tested in a cellular assay using the MT4-LTR-EGFP cells for anti-viral activity.
The cellular assay was performed according to the following procedure. HIV- or mock-infected MT4-LTR-EGFP cells were incubated for three days in the presence of various concentrations of the compounds according to the invention. Upon infection, the viral tat protein activates the GFP reporter. At the end of the incubation period, the GFP signal was measured. […] The inhibitory activity of the compound was monitored on the virus-infected cells and was expressed as EC50. These values represent the amount of the compound required to protect 50% of the cells from virus infection.

[2] = tested on: clinically isolated HIV strain A; experiment: Cellular anti-viral assay in MT4-LTR-EGFP cells, mutant strain A; details: for pEC50 virus strain A: MT4-LTR-EGFP cells, three days, GFP signal; for EC50: Human immunodeficiency virus 1, 72 h, read-out: pEC50 virus strain A (converted)
Protocol: (§1) Because of the increasing emergence of drug resistant HIV strains, the present compounds were tested for their potency against clinically isolated HIV strains harboring several mutations. These mutations are associated with resistance to protease inhibitors and result in viruses that show various degrees of phenotypic cross-resistance to the currently commercially available drugs such as for instance saquinavir, ritonavir, nelfinavir, indinavir and amprenavir. The viral strains coded as A, B, C and D contain mutations as indicated below in Table 2.
(§2) The cellular assay was performed according to the following procedure. HIV- or mock-infected MT4-LTR-EGFP cells were incubated for three days in the presence of various concentrations of the compounds according to the invention. Upon infection, the viral tat protein activates the GFP reporter. At the end of the incubation period, the GFP signal was measured. In the virus control samples (in the absence of any inhibitor) the maximal fluorescent signal was obtained. The inhibitory activity of the compound was monitored on the virus-infected cells and was expressed as EC50. These values represent the amount of the compound required to protect 50% of the cells from virus infection. (Table 3).

[3] = tested on: clinically isolated HIV strain B; experiment: Cellular anti-viral assay in MT4-LTR-EGFP cells, mutant strain B; details: for pEC50 virus strain B: MT4-LTR-EGFP cells, three days, GFP signal; for EC50: Human immunodeficiency virus 1, 72 h, read-out: pEC50 virus strain B (converted)
Protocol: as §1, §2

[4] = tested on: clinically isolated HIV strain C; experiment: Cellular anti-viral assay in MT4-LTR-EGFP cells, mutant strain C; details: for pEC50 virus strain C: MT4-LTR-EGFP cells, three days, GFP signal; for EC50: Human immunodeficiency virus 1, 72 h, read-out: pEC50 virus strain C (converted)
Protocol: as §1, §2

[5] = tested on: clinically isolated HIV strain D; experiment: Cellular anti-viral assay in MT4-LTR-EGFP cells, mutant strain D; details: for pEC50 virus strain D: MT4-LTR-EGFP cells, three days, GFP signal; for EC50: Human immunodeficiency virus 1, 72 h, read-out: pEC50 virus strain D (converted)
Protocol: as §1, §2

[6] = MT4-LTR-EGFP cells, three days, GFP signal

SMILES	pEC50 WT-IIIB-2-001 [1, 6]	pEC50 virus strain A [2]	pEC50 virus strain B [3]	pEC50 virus strain C [4]	pEC50 WT-IIIB-2-001 [1]	pEC50 virus strain D [5]	EC50 [1, 6]	EC50 [2]	EC50 [3]	EC50 [4]	EC50 [5]
COCCN1CCC(Nc2nc3ccc(S(=O)(=O)N(CC(C)C)C[C@@H](O)[C@H](Cc4ccccc4)NC(=O)O[C@H]4CO[C@H]5OCC[C@H]54)cc3s2)CC1 [Compound 8]	7.44	6.65	7.00	5.25							
CC(C)CN(C[C@@H](O)[C@H](Cc1ccccc1)NC(=O)O[C@H]1CO[C@H]2OCC[C@H]21)S(=O)(=O)c1ccc2nc(NC3CCN(Cc4cncs4)CC3)sc2c1 [Compound 15]		8.38	7.71	5.46	8.24	8.24					
CC(C)CN(CC(O)C(Cc1ccccc1)NC(=O)OC1COC2OCCC12)S(=O)(=O)c1ccc2nc(NC3CCN(Cc4cncs4)C3)sc2c1 (stereo not shown) [Compound 23]	7.97	8.56	7.56	5.36		8.27					
CC(C)CN(C[C@@H](O)[C@H](Cc1ccccc1)NC(=O)O[C@H]1CO[C@H]2OCC[C@H]21)S(=O)(=O)c1ccc2nc(NC3CCN(C(C)C)CC3)sc2c1 [Compound 5]	7.72	7.89	7.57	5.38		7.86					
CC(C)CN(C[C@@H](O)[C@H](Cc1ccccc1)NC(=O)O[C@H]1CO[C@H]2OCC[C@H]21)S(=O)(=O)c1ccc2nc(NC3CCN(C(=O)CN(C)C)CC3)sc2c1 [Compound 9]	6.56	6.99	6.59	5.00		6.99					
CC(C)CN(C[C@@H](O)[C@H](Cc1ccccc1)NC(=O)O[C@H]1CO[C@H]2OCC[C@H]21)S(=O)(=O)c1ccc2nc(NC3CCN(Cc4cccnc4)C3)sc2c1 (stereo in doubt) [Compound 21, (1-Benzyl-2-hydroxy-3-{isobutyl-[2-(1-pyridin-3-ylmethyl-pyrrolidin-3-ylamino)-benzothiazole-6-sulfonyl}-amino]-propyl)-carbamic acid hexahydro-furo[2,3-b]furan-3-yl ester]							0.0112 µM	0.0049 µM	0.0145 µM	1.82 µM	0.00708 µM
COCCN1CCC(Nc2nc3ccc(S(=O)(=O)N(CC(C)C)CC(O)C(Cc4ccccc4)NC(=O)OC4COC5OCCC45)cc3s2)C1 (stereo not shown) [Compound 18]	7.76	7.61	7.24	5.32							
CC(C)CN(CC(O)C(Cc1ccccc1)NC(=O)OC1COC2OCCC12)S(=O)(=O)c1ccc2nc(NC3CCN(Cc4cncs4)C3)sc2c1 (stereo not shown) [Compound 24]	8.22	7.91	7.70	5.08		7.89					
COCCN1CCC(Nc2nc3ccc(S(=O)(=O)N(CC(C)C)C[C@@H](O)[C@H](Cc4ccccc4)NC(=O)O[C@H]4CO[C@H]5OCC[C@H]54)cc3s2)C1 (stereo in doubt) [Compound 17, [1-Benzyl-2-hydroxy-3-(isobutyl-{2-[1-(2-methoxy-ethyl)-pyrrolidin-3-ylamino]-benzothiazole-6-sulfonyl}-amino)-propyl]-carbamic acid hexahydro-furo[2,3-b]furan-3-yl ester]							0.0186 µM	0.0132 µM	0.017 µM	3.39 µM	
CC(C)CN(C[C@@H](O)[C@H](Cc1ccccc1)NC(=O)O[C@H]1CO[C@H]2OCC[C@H]21)S(=O)(=O)c1ccc2nc(NC3CCN(C(=O)CN4CCOCC4)CC3)sc2c1 [Compound 10]	6.53	6.84	6.52	5.11		6.62					
CC(C)CN(CC(O)C(Cc1ccccc1)NC(=O)OC1COC2OCCC12)S(=O)(=O)c1ccc2nc(NC3CCN(Cc4ccncc4)C3)sc2c1 (stereo not shown) [Compound 22]	7.71		7.77	6.19							
CC(C)CN1CCC(Nc2nc3ccc(S(=O)(=O)N(CC(C)C)C[C@@H](O)[C@H](Cc4ccccc4)NC(=O)O[C@H]4CO[C@H]5OCC[C@H]54)cc3s2)CC1 [Compound 6]	8.31	7.84	7.58	5.46		7.86					
CC(C)CN1CCC(Nc2nc3ccc(S(=O)(=O)N(CC(C)C)CC(O)C(Cc4ccccc4)NC(=O)OC4COC5OCCC45)cc3s2)C1 (stereo not shown) [Compound 20]	8.27	8.23	7.84	5.59		8.12					
CC(C)CN(C[C@@H](O)[C@H](Cc1ccccc1)NC(=O)O[C@H]1CO[C@H]2OCC[C@H]21)S(=O)(=O)c1ccc2nc(NC3CCN(Cc4cccnc4)CC3)sc2c1 [Compound 14]		7.85	7.78	5.90	7.85	7.84					
CC(C)CN(CC(O)C(Cc1ccccc1)NC(=O)OC1COC2OCCC12)S(=O)(=O)c1ccc2nc(NC3CCN(Cc4ccccn4)C3)sc2c1 (stereo not shown) [Compound 25]	5.77	5.59	5.04	<4.49		5.41					
CC(C)CN(C[C@@H](O)[C@H](Cc1ccccc1)NC(=O)O[C@H]1CO[C@H]2OCC[C@H]21)S(=O)(=O)c1ccc2nc(NC3CCN(Cc4ccncc4)CC3)sc2c1 [Compound 12]	8.34	8.26	7.71	5.19		8.27					
CC(C)CN(C[C@@H](O)[C@H](Cc1ccccc1)NC(=O)O[C@H]1CO[C@H]2OCC[C@H]21)S(=O)(=O)c1ccc2nc(NC3CCNC3)sc2c1 (stereo partly shown) [Compound 16]	6.82	5.93	5.89	5.90							
CC(C)CN1CCC(Nc2nc3ccc(S(=O)(=O)N(CC(C)C)CC(O)C(Cc4ccccc4)NC(=O)OC4COC5OCCC45)cc3s2)C1 (stereo not shown) [Compound 19]	8.42	7.84	7.33	5.35		7.75					
CC(C)CN(C[C@@H](O)[C@H](Cc1ccccc1)NC(=O)O[C@H]1CO[C@H]2OCC[C@H]21)S(=O)(=O)c1ccc2nc(NC3CCN(Cc4ccccn4)CC3)sc2c1 [Compound 13]	8.18	8.06	7.94	6.04		7.98					
CC(C)CN(C[C@@H](O)[C@H](Cc1ccccc1)NC(=O)O[C@H]1CO[C@H]2OCC[C@H]21)S(=O)(=O)c1ccc2nc(NC3CCN(Cc4ccccc4)CC3)sc2c1 [Compound 11, (1-Benzyl-3-{[2-(1-benzyl-piperidin-4-ylamino)-benzothiazole-6-sulfonyl]-isobutyl-amino}-2-hydroxy-propyl)-carbamic acid hexahydro-furo[2,3-b]furan-3-yl ester]							0.00251 µM	0.0224 µM	0.0339 µM	5.75 µM	0.0186 µM
